Experimental data reported in ChEMBL document CHEMBL1201862, “PubChem BioAssay data set” (2004).
Active and inactive are the calls of the source.

Assays:
[1] = Luminescence Cell-Based Dose Retest to Confirm Inhibitors of Cancer Stem Cells. [Related pubchem assays (depositor defined):AID2717, AID2721]; format: functional; conditions: Homo sapiens
[2] = molecular target: T1, Protein skinhead-1 (Caenorhabditis elegans, UniProt P34707); format: functional
T1 sequence (P34707 whole entry): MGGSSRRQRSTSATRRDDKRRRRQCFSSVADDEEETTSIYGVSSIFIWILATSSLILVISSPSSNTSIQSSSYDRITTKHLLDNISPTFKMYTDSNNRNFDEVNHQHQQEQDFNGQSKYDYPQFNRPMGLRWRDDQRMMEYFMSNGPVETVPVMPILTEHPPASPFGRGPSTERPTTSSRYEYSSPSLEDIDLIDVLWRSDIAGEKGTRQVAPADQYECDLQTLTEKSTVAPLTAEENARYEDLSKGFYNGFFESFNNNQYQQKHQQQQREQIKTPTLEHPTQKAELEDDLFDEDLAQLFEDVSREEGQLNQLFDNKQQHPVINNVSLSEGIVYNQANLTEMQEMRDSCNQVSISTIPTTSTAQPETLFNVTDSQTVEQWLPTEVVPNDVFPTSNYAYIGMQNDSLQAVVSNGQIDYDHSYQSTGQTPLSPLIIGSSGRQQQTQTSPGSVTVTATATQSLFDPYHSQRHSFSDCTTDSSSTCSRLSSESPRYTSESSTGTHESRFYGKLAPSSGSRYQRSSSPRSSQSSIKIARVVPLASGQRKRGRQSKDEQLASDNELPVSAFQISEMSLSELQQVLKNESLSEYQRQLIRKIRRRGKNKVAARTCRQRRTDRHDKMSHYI

[3] = molecular target: Cytochrome P450 2D6 (Homo sapiens, UniProt P10635)
Cytochrome P450 2D6, sequence (P10635 whole entry): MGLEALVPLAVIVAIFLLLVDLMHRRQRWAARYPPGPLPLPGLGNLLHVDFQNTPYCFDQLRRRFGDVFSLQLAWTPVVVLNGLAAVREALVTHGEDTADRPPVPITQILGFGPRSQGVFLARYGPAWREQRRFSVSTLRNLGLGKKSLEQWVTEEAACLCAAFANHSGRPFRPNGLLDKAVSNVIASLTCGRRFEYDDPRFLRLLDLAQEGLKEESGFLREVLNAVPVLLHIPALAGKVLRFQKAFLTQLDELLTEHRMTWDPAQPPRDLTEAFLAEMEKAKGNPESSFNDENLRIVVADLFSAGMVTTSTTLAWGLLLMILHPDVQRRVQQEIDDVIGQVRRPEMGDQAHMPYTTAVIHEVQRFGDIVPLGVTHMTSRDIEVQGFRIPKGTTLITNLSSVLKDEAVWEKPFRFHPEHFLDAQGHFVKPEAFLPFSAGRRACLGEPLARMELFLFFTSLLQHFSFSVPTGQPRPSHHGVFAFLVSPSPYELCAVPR

[4] = molecular target: T2, Heat shock factor protein 1 (Mus musculus, UniProt P38532); assay: enhancement of HSF1-driven luciferase signal – cell-based, NIH3T3, luminescence, dose retest, confirmation (AID 435004); format: functional;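 also: stress induced by proteasome inhibitor MG132 added 30 min after compound; luciferase reporter driven by HSF1 response element in NIH3T3 cells; actives raise luminescence as potentiators of the MG132 stress response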
T2 sequence (P38532 whole entry): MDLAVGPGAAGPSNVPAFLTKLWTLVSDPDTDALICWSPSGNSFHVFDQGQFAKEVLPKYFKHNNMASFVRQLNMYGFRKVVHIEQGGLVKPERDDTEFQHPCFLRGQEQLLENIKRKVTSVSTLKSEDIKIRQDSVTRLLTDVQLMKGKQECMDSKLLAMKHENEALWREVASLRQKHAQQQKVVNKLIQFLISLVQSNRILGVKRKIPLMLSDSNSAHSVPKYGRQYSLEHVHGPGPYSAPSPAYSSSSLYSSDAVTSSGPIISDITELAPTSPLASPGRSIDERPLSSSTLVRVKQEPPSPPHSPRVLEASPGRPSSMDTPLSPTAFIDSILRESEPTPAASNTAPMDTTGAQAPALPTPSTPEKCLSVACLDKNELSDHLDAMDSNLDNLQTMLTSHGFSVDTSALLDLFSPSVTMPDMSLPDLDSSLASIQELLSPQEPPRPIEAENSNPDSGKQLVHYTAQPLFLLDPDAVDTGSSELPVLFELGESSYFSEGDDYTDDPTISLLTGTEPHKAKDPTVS

[5] = molecular target: T3, Cytochrome P450 1A2 (Homo sapiens, UniProt P05177);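 also: PubChem cytochrome P450 panel assay, CYP1A2 panel member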
T3 sequence (P05177 whole entry): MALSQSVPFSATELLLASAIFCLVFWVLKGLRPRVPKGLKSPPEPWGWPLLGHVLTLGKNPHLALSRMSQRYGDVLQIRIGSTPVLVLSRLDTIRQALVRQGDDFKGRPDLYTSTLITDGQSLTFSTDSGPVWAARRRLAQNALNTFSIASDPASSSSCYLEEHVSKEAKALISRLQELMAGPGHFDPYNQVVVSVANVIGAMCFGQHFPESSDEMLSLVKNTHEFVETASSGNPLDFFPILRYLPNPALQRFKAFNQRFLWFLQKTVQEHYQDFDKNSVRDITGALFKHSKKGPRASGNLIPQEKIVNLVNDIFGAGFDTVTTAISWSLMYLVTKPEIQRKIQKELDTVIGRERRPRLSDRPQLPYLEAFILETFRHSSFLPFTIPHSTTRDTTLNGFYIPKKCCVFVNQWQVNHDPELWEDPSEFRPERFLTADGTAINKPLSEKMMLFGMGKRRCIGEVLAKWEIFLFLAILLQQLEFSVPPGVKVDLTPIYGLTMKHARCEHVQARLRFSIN

[6] = molecular target: Cytochrome P450 2C19 (Homo sapiens, UniProt P33261); assay: Cytochrome panel assay with activity outcomes. Panel member name: p450-cyp2c19 Compounds with AC50 equal or less than 10 uM are considered active; format: functional; conditions: read-out: AC50
Cytochrome P450 2C19, sequence (P33261 whole entry): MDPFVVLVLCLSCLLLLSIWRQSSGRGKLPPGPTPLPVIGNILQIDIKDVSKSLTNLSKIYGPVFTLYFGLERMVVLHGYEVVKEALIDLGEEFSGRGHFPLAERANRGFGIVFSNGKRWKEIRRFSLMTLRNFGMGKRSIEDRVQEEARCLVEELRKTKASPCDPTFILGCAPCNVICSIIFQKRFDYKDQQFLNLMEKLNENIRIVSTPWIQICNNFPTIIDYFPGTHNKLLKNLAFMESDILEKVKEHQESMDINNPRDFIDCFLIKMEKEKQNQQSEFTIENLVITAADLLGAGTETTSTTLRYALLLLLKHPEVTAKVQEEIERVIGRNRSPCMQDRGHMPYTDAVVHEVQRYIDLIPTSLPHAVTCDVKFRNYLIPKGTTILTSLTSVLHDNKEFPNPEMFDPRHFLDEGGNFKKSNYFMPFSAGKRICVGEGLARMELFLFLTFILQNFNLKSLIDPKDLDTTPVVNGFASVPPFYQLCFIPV

[7] = molecular target: Paired box protein Pax-8 (Homo sapiens, UniProt Q06710); assay: PAX8 transcriptional activity inhibition in RMG-I – RMG-I cells, luciferase, cherry-pick, dose response (AID 687027); format: functional, cell-based;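 also: luciferase reporter driven by Pax8 target thyroperoxidase promoter measured by SteadyGlo luminescence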
Paired box protein Pax-8, sequence (Q06710 whole entry): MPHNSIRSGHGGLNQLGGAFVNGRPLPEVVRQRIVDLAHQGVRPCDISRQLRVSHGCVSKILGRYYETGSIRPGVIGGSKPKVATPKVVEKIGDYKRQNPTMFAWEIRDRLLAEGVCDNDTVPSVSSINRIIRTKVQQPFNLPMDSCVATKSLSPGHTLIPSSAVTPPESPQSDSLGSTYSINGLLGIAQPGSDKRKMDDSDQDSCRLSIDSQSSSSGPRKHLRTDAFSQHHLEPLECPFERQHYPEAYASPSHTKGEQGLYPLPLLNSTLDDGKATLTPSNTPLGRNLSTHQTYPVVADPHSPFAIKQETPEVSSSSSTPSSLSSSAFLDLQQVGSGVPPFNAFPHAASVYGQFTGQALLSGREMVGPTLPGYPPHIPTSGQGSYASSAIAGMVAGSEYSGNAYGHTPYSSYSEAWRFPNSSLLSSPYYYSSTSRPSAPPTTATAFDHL

[8] = Luminescence Cell-Based Dose Confirmation HTS to Identify Activators of 5'UTR Stem-Loop Driven Alpha-Synuclein mRNA Translation in H4 Neuroglioblastoma Cells. [Related pubchem assays: 1829 (Project Summary), 1814 (Primary HTS)]; format: functional
[9] = Luminescence Cell-Based Dose Response HTS to Identify Activators of Luciferase Translation or Activity in H4 […] Cells. [Related pubchem assays: 1829 (Project Summary), 1814 (Primary HTS)]; format: functional
[10] = system: H4; assay: Luminescence Cell-Based Dose Response HTS to Identify Activators of 5'UTR Stem-Loop Driven Prion Protein mRNA Translation in H4 Neuroglioblastoma Cells. [Related pubchem assays: 1829 (Project Summary), 1814 (Primary HTS)]; format: functional; conditions: Homo sapiens
[11] = viability of uninfected HEp-2 cells – cell-based, HTS, cytotoxicity control for RSV inhibitor project, dose response (AID 2410); format: functional; conditions: human respiratory syncytial virus
[12] = molecular target: T4, Streptokinase A (Streptococcus pyogenes serotype M1, UniProt P10520); assay: viability-normalized secreted streptokinase activity reduction – plasminogen activation absorbance, OD405, dose response (AID 1914); format: functional, Streptococcus pyogenes M1 GAS;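 also: secreted streptokinase activity via plasminogen activation per viability signal from cell pellet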
T4 sequence (P10520 whole entry): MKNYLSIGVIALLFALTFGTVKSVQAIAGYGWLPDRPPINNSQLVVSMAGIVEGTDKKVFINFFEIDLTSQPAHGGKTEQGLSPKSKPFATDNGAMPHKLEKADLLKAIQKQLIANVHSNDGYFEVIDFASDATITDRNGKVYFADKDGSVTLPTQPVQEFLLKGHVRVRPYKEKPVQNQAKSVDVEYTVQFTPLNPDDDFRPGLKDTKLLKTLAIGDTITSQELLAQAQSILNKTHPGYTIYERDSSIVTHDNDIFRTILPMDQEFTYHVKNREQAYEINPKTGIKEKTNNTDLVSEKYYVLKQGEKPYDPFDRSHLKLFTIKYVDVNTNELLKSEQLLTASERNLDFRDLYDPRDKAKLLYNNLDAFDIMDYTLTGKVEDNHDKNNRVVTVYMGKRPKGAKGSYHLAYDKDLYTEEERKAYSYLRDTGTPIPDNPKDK

[13] = system: Streptococcus sp. 'group A'; assay: Streptococcus pyogenes SK(-)GAS viability under kanamycin – luminescence, BacTiterGlo, confirmation, counter-screen for streptokinase expression inhibitor project, dose response (AID 1900); format: functional, organism-based
[14] = molecular target: Cytochrome P450 2C9 (Homo sapiens, UniProt P11712)
Cytochrome P450 2C9, sequence (P11712 whole entry): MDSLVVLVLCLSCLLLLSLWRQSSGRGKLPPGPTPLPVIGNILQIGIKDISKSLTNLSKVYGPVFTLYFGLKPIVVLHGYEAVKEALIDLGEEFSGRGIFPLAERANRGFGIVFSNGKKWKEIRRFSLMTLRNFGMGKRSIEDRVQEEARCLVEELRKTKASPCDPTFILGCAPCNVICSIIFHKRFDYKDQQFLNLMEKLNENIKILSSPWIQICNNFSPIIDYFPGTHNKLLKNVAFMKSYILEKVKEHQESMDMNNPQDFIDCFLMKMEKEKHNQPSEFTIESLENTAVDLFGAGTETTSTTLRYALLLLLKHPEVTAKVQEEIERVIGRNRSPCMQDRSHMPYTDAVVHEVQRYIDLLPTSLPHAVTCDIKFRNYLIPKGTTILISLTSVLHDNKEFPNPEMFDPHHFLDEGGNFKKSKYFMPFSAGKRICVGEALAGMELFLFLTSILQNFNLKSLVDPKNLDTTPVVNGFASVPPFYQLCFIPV

[15] = system: Streptococcus; assay: GAS UMAA2166 growth inhibition – luminescence, BacTiterGlo, counter-screen for streptokinase expression inhibitor project, dose response (AID 1915); format: functional, organism-based;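 also: potency for reduction of bacterial viability or growth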
[16] = molecular target: T2, Heat shock factor protein 1; assay: decrease of HSF1-responsive luciferase luminescence – cell-based, NIH3T3, dose retest, confirmation (AID 2382); format: functional;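 also: NIH3T3 fibroblasts with HSF1-driven luciferase reporter stressed by proteasome inhibitor MG132; luminescence from HSF1-driven luciferase expression after 8 hours of MG132 stress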

O=C(Nc1cccc(-c2csc(Nc3ccccc3)n2)c1)c1ccccc1
AC50 [1]: 2.96 µM (active)
IC50 [2]: > 100 µM (inactive)

COC(=O)[C@@]1(Cc2ccccc2)[C@H]2c3cc(C(=O)N4CCCC4)n(Cc4ccc(OC)c(OC)c4)c3C[C@H]2CN1C(=O)c1ccccc1
AC50 [3]: 31.6 µM (inconclusive)

COc1ccccc1NC(=O)CSc1nnc(-c2ccncc2)o1
IC50 [2]: > 100 µM (inactive)

Cn1c(S)nnc1Cc1c[nH]c2ccccc12
IC50 [2]: > 100 µM (inactive)

CCCC12CN3CC(C)(CN(C1)C3c1ccc3c(c1)OCO3)C2=O (stereo not drawn)
EC50 [4]: > 260 µM (inactive)

CCN(CC)S(=O)(=O)c1cc([N+](=O)[O-])ccc1NNC(=O)Nc1ccccc1OC
EC50 [4]: > 260 µM (inactive)

Cc1ccc(NN/C=C2\C(=O)NC(=O)N(c3ccccc3)C2=O)cc1
AC50 [1]: 2.35 µM (active)

Cc1ccc(F)c(C2C3C=CCC(c4cccc(-c5ccc(N(C)C)cc5)c4)C3C(=O)N2Cc2ccccc2)c1 (stereo not drawn)
IC50 [2]: > 100 µM (inactive)

CC(NC(=O)c1cc(COc2ccccc2)on1)c1nccs1 (stereo not drawn)
IC50 [2]: > 100 µM (inactive)

Cc1ccccc1-c1cncnc1N1CCN(C)CC1
AC50 [5]: 15.8 µM (inconclusive)
AC50 [6]: 39.8 µM (inconclusive)

O=S(=O)(NC1CCCCC1N1CCN(c2ccccc2F)CC1)c1ccccc1 (stereo not drawn)
AC50 [7]: 23.1 µM (active)

NCCSc1nc2ccccc2s1
AC50 [3]: 3.98 µM (inconclusive)

CC1(C)CC(=O)C(C2C3=C(CC(C)(C)CC3=O)OC3=C2C(=O)CC(C)(C)C3)=C(O)C1
EC50 [4]: > 260 µM (inactive)

COC(=O)C1=C(c2ccc(F)cc2OCc2ccccc2)C[C@@H]2CC[C@H]1N2C(=O)NCc1ccc2[nH]ccc2c1
AC50 [7]: 18.2 µM (active)

c1ccc(N2OCC3Cn4c(nc5ccccc54)C32)cc1 (stereo not drawn)
EC50 [8]: 30.3 µM (active)
EC50 [9]: 8.69 µM (active)
EC50 [10]: 44.2 µM (active)

C=CCSc1n[nH]c(-c2ccccc2)n1
EC50 [8]: 9.22 µM (active)
EC50 [9]: 8.06 µM (active)
EC50 [10]: 75.3 µM (active)

O=C1CN(c2nc(-c3cccs3)nc3sc4c(c23)CCCC4)CCN1
EC50 [8]: 9.49 µM (active)
CC50 [11]: > 50 µM (active)
EC50 [9]: 15.2 µM (active)
EC50 [10]: 21 µM (active)

Cc1cc(NC(=O)COc2cccc(Oc3ccccc3)c2)no1
EC50 [8]: > 120 µM (not active)
EC50 [9]: > 120 µM (not active)
EC50 [10]: > 120 µM (not active)

O=C(/C=C\Nc1ccc(Br)cc1)c1cccnc1
IC50 [2]: 71.4 µM (inactive)

Oc1c2c(nc3cc(-c4cccc(F)c4)nn13)CCC2
EC50 [4]: > 260 µM (inactive)

CCCSc1cc(N2CCCC2)nc(-c2ccccc2)n1
EC50 [12]: > 150 µM (not active)
EC50 [13]: 35 µM (active)
AC50 [14]: 2 µM (inconclusive)
AC50 [6]: 39.8 µM (inconclusive)
EC50 [15]: > 150 µM (not active)

CN(C)c1nc(N)nc(CSc2nnnn2-c2ccc(F)cc2)n1
EC50 [4]: > 260 µM (inactive)

O=C1c2ccccc2CCc2ccc(Br)cc21
IC50 [2]: 35.6 µM (active)

FC(F)(F)c1ccc(-c2noc(CN3CCCN(C4CCCCC4)CC3)n2)cc1
AC50 [1]: 1.79 µM (active)

O=S(=O)(Nc1ccc2c(c1)OCCO2)c1cccs1
EC50 [8]: 14.8 µM (active)
EC50 [16]: 2.91 µM (active)
EC50 [9]: 10.9 µM (active)
EC50 [10]: 10.8 µM (active)

Cc1ccc(-c2noc(CCC(=O)Nc3cc(C)ccn3)n2)cc1
EC50 [4]: > 260 µM (inactive)

Oc1ccc(C2C(c3ccccc3)=NN=C(c3ccccc3F)N2O)c(O)c1 (stereo not drawn)
EC50 [8]: 95.8 µM (active)
EC50 [9]: 72.3 µM (active)
EC50 [10]: > 120 µM (not active)

O=C(Nc1nc(-c2cccc3ccccc23)cs1)c1ccc2c(c1)S(=O)(=O)c1ccccc1C2=O
AC50 [1]: 3.99 µM (active)

COc1ccc(NC(=O)CSc2n[nH]c(N)n2)cc1OC
EC50 [8]: > 120 µM (not active)
EC50 [9]: > 120 µM (not active)
EC50 [10]: > 120 µM (not active)

COc1cc(C2C3=C(COC3=O)Oc3cc4c(cc32)OCO4)cc(OC)c1O (stereo not drawn)
AC50 [7]: 1.74 µM (active)

COC(=O)c1ccc(CC2(C)C(=O)Nc3ccc(-c4cccc(C(F)(F)F)c4)cc32)o1 (stereo not drawn)
IC50 [2]: 79.3 µM (inactive)

C/C(=C\C(=O)c1ccc(Br)cc1)NCc1ccccc1
EC50 [8]: > 120 µM (not active)
EC50 [9]: 9.58 µM (active)
EC50 [10]: 90.3 µM (active)

C/C(=N\NC(=O)c1ccoc1C)c1cccc2ccccc12
EC50 [4]: > 260 µM (inactive)

CC1(C(=O)NS(=O)(=O)c2cccs2)CCN1C(=O)Cc1ccc(-c2ccccc2)cc1 (stereo not drawn)
IC50 [2]: > 100 µM (inactive)
